Laboratory results taken from patent US9587220B2, “Method for inducing cardiac differentiation of pluripotent stem cell” (Kyoto University, priority 2012, dated 2017).
Entries after “also recorded” stand apart in the source; their conditions may differ.

Assays:
[1] = tested on: TCF promoter activity in HEK293 cells; assay: TOPflash TCF reporter assay in HEK293 cells; format: cell-based, human; conditions: 10 μM
Protocol: For the TCF reporter assay, IMR90-1 hiPSCs were cultured in the serum-containing differentiation culture, as described above, and transfected with TOPFlash plasmid (Millipore 21-170) and pRL-SV40 plasmid (Renilla luciferase transfection control, Promega E1980) on Day 2, using FuGENE HD transfection Reagenet (Promega E2311). After 24 h, 10 μM KY02111, 10 μM XAV939, or 10 μM IWP-2 was added to the medium, along with either 60 ng ml^−1 of mouse Wnt3a (Wako 232-02421) or 3 μM BIO. After 48 h of transfection (Day 4), luciferase activities were measured using a Dual-Luciferase Reporter 1000 Assay System kit (Promega E1980) and a 2030 ARVO X3 plate reader (PerkinElmer). Luciferase activities were normalized to the luminescence of the transfection control, Rennila luciferase, according to the kit protocol. For experiments using HEK293 cells, the cells were cultured in 10% FBS DMEM medium, and transfected with TOPflash and pRL-SV40 plasmid, using FuGENE HD. After 24 h, the transfected cells were seeded onto 96-well plates (10,000 cells well^−1) in medium containing 10 μM KY02111, 10 μM XAV939, or 10 μM IWP-2, along with 3 μM BIO or 60 ng ml^−1 mouse Wnt3a. Luciferase activities were measured 48 h after transfection by the procedure described above.

IMR90-1 hiPSCs = assay: Cardiac differentiation with BIO and CHIR99021 (Days 0-3) followed by WNT inhibitors, serum-free or serum medium; format: cell-based, human
Protocol: After pre-culture in Petri dishes as described above, cell aggregates were attached to culture dishes coated with gelatin (Sigma G2625) or human laminin 211 (BioLamina, Sweden) at 3-10×10^5 cells cm^-2, in serum-free cardiac differentiation medium: IMDM (Sigma) containing 1% MEM non-essential amino acid solution (Sigma), 1% Penicillin-Streptomycin (Gibco), 2 mM L-glutamine (Sigma), 0.5 mM L-carnitine (Sigma), 0.001% 2-Mercapcoethanol (Gibco), and 1-2% bovine serum albumin (Wako, Japan) or 0.4% human serum albumin (Sigma), with 5 μM CHIR99021 (Axon) and 2 μM BIO (Calbiochem). On Days 3-9, 10 μM KY02111 and/or other WNT inhibitors (XAV939 and/or IWP-2) were added to cell cultures, and the medium was changed every 2 d. On Day 15, the cardiac colonies were incubated with the protease solution for 5-10 min, until all colonies were detached from the bottom of the wells. The cardiac colonies were transferred into 15 ml tubes with cardiac differentiation medium including 0.1% albumin, and precipitated by gravity, the supernatant was removed, and the cardiac colonies were transferred to Ultra-low culture 6-well plates (Corning, YO-01835-24) with cardiac differentiation medium including 0.1% albumin. The floating cardiac colonies were maintained for more than 1 month, and the media were changed every 5 d. Cardiac colonies were dissociated by stirring for 1-2 h at 37° C. with the protease solution described above, cultured for 1 d on cover glasses coated with gelatin (Sigma), and fixed with 4% paraformaldehyde. After permeabilizing with Triton X, the cells were treated with 2% skim milk for 1-2 h, then incubated with primary antibodies for 2 h: NKX2.5 (rabbit polyclonal, 1:250; Abcam), αActinin (mouse monoclonal, 1:800; Sigma), cardiac TnT (mouse monoclonal, 1:100; Santa Cruz Biotechnology), Vimentin (mouse monoclonal, 1:800; Sigma V6630), and HCN4 (mouse monoclonal, 1:400; Abcam). The secondary antibodies used were Alexa546-conjugated anti-mouse IgG, Alexa488-conjugated anti-mouse IgG, and Alexa488-conjugated anti-rabbit IgG (1:1000; all from Molecular Probes, Invitrogen). Nuclei were visualized by DAPI. Images were captured under fluorescent microscopy (Olympus). The number of cTnT, αActinin, NKX2.5, HCN4, and Vimentin-positive cells were counted from three random areas, using the Metamorph imaging system (Molecular Devices). Approximately 1000 DAPI-stained cells were used to calculate the proportion of immunopositive cells (the number of immunopositive cells divided by the number of DAPI-stained cells). […] Cells were analyzed using a FACS CantoII flow cytometer (BD Biosciences). Data was analyzed using […] software (BD Biosciences).

COc1ccc(CCC(=O)Nc2nc3ccc(Cl)cc3s2)cc1OC [KY02111, 2-(3-(3,4-dimethoxyphenyl)propanamide)-6-chlorobenzothiazole]
TCF promoter activity by Wnt3a ([1]; with 60 ng/ml Wnt3a): enhanced luciferase activity; also recorded: further augmented | TCF promoter activity by BIO ([1]; with 3 μM BIO): cancelled WNT activation by BIO; also recorded: inhibited | number of beating colonies and total number of cardiomyocytes, defined medium (Alb) versus serum-containing medium (FBS) (IMR90-1 hiPSCs; FIG. 4e): increased more in defined medium (Alb) | proportion of cTnT-positive cells by immunostaining (IMR90-1 hiPSCs; albumin (serum-free)): 93.3%±4.4 | differentiation efficiency (cTnT-positive cells) by FACS (IMR90-1 hiPSCs; cytokine- and serum-free conditions): 90.2% | differentiation efficiency (cTnT-positive cells) (IMR90-1 hiPSCs; with serum (FBS)): 83.7%±8.0
